Tests used:
[1] = comparison among glucocorticoids; cited from earlier work
[2] = Solubility in purified water; settings: vortex 5 minutes
Description: Respective salt and base forms of betamethasone and dexamethasone were weighed and transferred in the glass test tube.

[3] = test system: neurological symptoms in ataxia telangiectasia; settings: 0.1 mg/kg/day, cited from earlier work
[4] = test system: ataxia symptoms in children with AT; settings: cited from earlier work
[5] = cited from earlier work

C[C@]12CCC(=O)C=C1CC[C@@H]1[C@@H]2[C@@H](O)C[C@@]2(C)[C@H]1CC[C@]2(O)C(=O)CO [hydrocortisone]
equivalent mg dosage [1]: 20 mg

C[C@@H]1C[C@H]2[C@@H]3CCC4=CC(=O)C=C[C@]4(C)[C@@]3(F)[C@@H](O)C[C@]2(C)[C@@]1(O)C(=O)COP(=O)([O-])[O-].[Na+].[Na+] [Dexamethasone disodium phosphate]
Solubility in purified water ([2]; Concentration 1.00 mg/0.14 ml): Soluble
Solubility in purified water ([2]; Concentration 2.00 mg/0.14 ml): Soluble
Solubility in purified water ([2]; Concentration 4.00 mg/0.14 ml): Soluble
Solubility in purified water ([2]; Concentration 8.00 mg/0.14 ml): Soluble

C[C@H]1C[C@H]2[C@@H]3CCC4=CC(=O)C=C[C@]4(C)[C@@]3(F)[C@@H](O)C[C@]2(C)[C@@]1(O)C(=O)CO [betamethasone]
Solubility in purified water ([2]; Concentration 0.25 mg/0.14 ml): Not Soluble
change in phenotypic appearance (adverse effect) ([3]; 4 weeks): moon face
body weight at 4 weeks ([3]; from 15.5 kg): 19.0 kg
patients with moon face ([4]; 13 children): 8 patients
patients with small increases in body weight ([4]; 13 children): 12 patients
adverse events in the trial ([4]; in vivo): minimal

C[C@]12C=CC(=O)C=C1CC[C@H]1[C@@H]3C[C@@H](O)[C@](O)(C(=O)CO)[C@@]3(C)C[C@H](O)[C@@]12F [triamcinolone]
equivalent mg dosage [1]: 4 mg

C[C@@H]1C[C@H]2[C@@H]3CCC4=CC(=O)C=C[C@]4(C)[C@@]3(F)[C@@H](O)C[C@]2(C)[C@@]1(O)C(=O)CO [dexamethasone]
Solubility in purified water ([2]; Concentration 0.25 mg/0.14 ml): Not Soluble

C[C@H]1CC2C3CCC4=CC(=O)C=C[C@]4(C)[C@@]3(F)[C@@H](O)C[C@]2(C)[C@@]1(O)C(=O)COP(=O)(O)O (stereo partly drawn) [Betamethasone disodium phosphate, 9-Fluoro-11β,17,21-trihydroxy-16β-methylpregna-1,4-diene-3,20-dione 21-(disodium phosphate)]
solubility (in words) [5]: soluble
stability in aqueous solution ([5]; strongly influenced by storage temperature): very low
Solubility in purified water ([2]; Concentration 0.25 mg/0.14 ml): Soluble
Solubility in purified water ([2]; Concentration 0.50 mg/0.14 ml): Soluble
Solubility in purified water ([2]; Concentration 1.00 mg/0.14 ml): Soluble
Solubility in purified water ([2]; Concentration 1.50 mg/0.14 ml): Soluble
Solubility in purified water ([2]; Concentration 2.00 mg/0.14 ml): Soluble
Solubility in purified water ([2]; Concentration 4.00 mg/0.14 ml): Soluble
Solubility in purified water ([2]; Concentration 8.00 mg/0.14 ml): Soluble

C[C@]12C=CC(=O)C=C1CC[C@@H]1[C@@H]2[C@@H](O)C[C@@]2(C)[C@H]1CC[C@]2(O)C(=O)CO [prednisolone]
equivalent mg dosage [1]: 5 mg

— patent publication US11291672B2, “Betamethasone oral spray formulation and method of use to treat ataxia” (GRACE THERAPEUTICS LLC, priority 2016, dated 2022)
